These are literature values, as cited in patent publication US20220175741A1, “COMPOSITIONS, DEVICES AND METHODS FOR TREATING AUTISM” (priority 2017, published 2022).

Data set [1] concerns child's autistic symptoms. The following applies: one child; Rodakis, Microbial Ecology in Health & Disease 2015.
Data set [2] deals with children with Autism. The following applies: within a few weeks of treatment; Sandler et al, Journal of Child Neurology 2000.

Regarding `CC1(C)S[C@@H]2[C@H](NC(=O)[C@H](N)c3ccc(O)cc3)C(=O)N2[C@H]1C(=O)O` [amoxycillin], the autistic symptoms entry in data set [1] is listed as “reversed almost completely”.
As for `CN[C@H](CC(C)C)C(=O)N[C@H]1C(=O)N[C@@H](CC(N)=O)C(=O)N[C@H]2C(=O)N[C@H]3C(=O)N[C@H](C(=O)N[C@H](C(=O)O)c4cc(O)cc(O)c4-c4cc3ccc4O)[C@H](O)c3ccc(c(Cl)c3)Oc3cc2cc(c3O[C@@H]2O[C@H](CO)[C@@H](O)[C@H](O)[C@H]2O[C@H]2C[C@](C)(N)[C@H](O)[C@H](C)O2)Oc2ccc(cc2Cl)[C@H]1O` [vancomycin], the “behavioural changes of autistic children” value in data set [2] was “reversal of behavioural changes and progress to normality”.
